Assay results: patent publication US12331032B2, “Quinone reductase 2 inhibitor compounds and uses thereof” (DUKE UNIVERSITY, priority 2018, dated 2025)
pIC50: −log10 of the molar value.

Columns and labels:
[1] = system: mouse model of closed head injury (TBI); assay: Rotorod vestibulomotor function after closed head injury (TBI); assay type: in vivo; conditions: mice, i.p. at 4 hours following TBI, after 5 days
Protocol: The TBI model involves a single impact designed to avoid skull fracture. Injury is produced predominantly through acceleration/deceleration forces. For this model, therapeutic compounds were delivered i.p. at 4 hours following TBI, and then once weekly thereafter for the duration of the experiment, which terminated after 28 days following assessment of spatial learning and memory. […] Mice were tested on Rotorod for 5 consecutive days post TBI, then on day 7 and day 28.

[2] = system: mouse model of closed head injury (TBI); assay: Morris Water maze spatial learning and memory after TBI; assay type: in vivo; conditions: days 28-31 post-injury
Protocol: The TBI model involves a single impact designed to avoid skull fracture. Injury is produced predominantly through acceleration/deceleration forces. For this model, therapeutic compounds were delivered i.p. at 4 hours following TBI, and then once weekly thereafter for the duration of the experiment, which terminated after 28 days following assessment of spatial learning and memory. FIG. 5A-B summarize the results of spatial learning and memory assessments at 4 weeks following TBI, using the Morris Water maze to test the ability of mice to locate a submerged platform. The mice performed four trials/day for 4 consecutive days (inter-trial interval=30 min). The latency to locate the platform was recorded, and the 4 trials per day were averaged. Mice were tested on days 28-31 post-injury (n=11-12 mice per group). Standard control trials to confirm intact vision were also performed.

[3] = target: T1, quinone reductase 2 (QR2) (Homo sapiens, UniProt P16083); assay: QR2 inhibition, comparative IC50 data; assay type: biochemical; conditions: QR2 inhibitors
T1 sequence (P16083 1-231): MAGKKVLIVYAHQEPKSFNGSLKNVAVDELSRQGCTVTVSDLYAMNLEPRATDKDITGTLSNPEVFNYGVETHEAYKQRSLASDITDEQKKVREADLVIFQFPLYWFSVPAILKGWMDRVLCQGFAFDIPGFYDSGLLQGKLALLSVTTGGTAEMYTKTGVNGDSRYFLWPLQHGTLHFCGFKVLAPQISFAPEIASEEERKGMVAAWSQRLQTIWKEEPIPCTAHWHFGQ

[4] = acidic lysomal pHs between 4 and 5.5; cited from earlier work
[5] = system: permanent MCA occlusion model; conditions: cited from earlier work

| pIC50 [3] | SMILES | improvement in Rotorod latency over CQ [1] [%] | improvement in Rotorod latency over vehicle [1] [%] | improvement in learning and memory over vehicle (Morris Water maze) [2] | fraction doubly protonated [4] [%] | reduction of stroke volumes [5] [%] |
| --- | --- | --- | --- | --- | --- | --- |
| 5.12 | COc1ccc2c(NCc3cccnc3)ccnc2c1 [QR2I-44, 7-methoxy-4-(pyridin-3-yl) methylaminoquinoline] | ~200 | ~300 | 30-35% | – | – |
| 4.15 | CCN(CC)CCCC(C)Nc1ccnc2cc(Cl)ccc12 (stereo not shown) [chloroquine] | – | – | – | ~100 | 60 |
